pEC50: −log10 of the molar value. Where two headings read alike, the source gives them in different places. Marks after values point to notes of the source that are not given here.

The assay concerns the target T1, F508delCFTR (Homo sapiens, UniProt P13569, DEL508-508).
T1 construct: expressed in transfected cells; host or cells: CFBE41o- human lung derived epithelial cells (CFBE41o-F508delCFTR-HRP), doxycycline-inducible
Briefly: Cell Surface Expression-Horse Radish Peroxidase (CSE-HRP) Assay.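 As to EC50 (with co-corrector): co-corrector chromenyl benzoic acid corrector at 2 or 3 µM.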 The format is cell-based. The note with it: for Maximum % activity (with co-corrector) / Emax: maximum at any tested concentration; for Emax: read-out: Maximum % activity (without co-corrector). As to the method:
A cellular assay for measuring the F508delCFTR cell surface expression after correction with test compounds either without or with a co-corrector (2 μM of 3-[(2R,4R)-4-({[1-(2,2-difluoro-1,3-benzodioxol-5-yl)cyclopropyl]carbonyl}amino)-7-methoxy-3,4-dihydro-2H-chromen-2-yl]benzoic acid), was developed in human lung derived epithelial cell line (CFBE4lo−) (Veit G et al, (2012) Mol Biol Cell. 23(21): 4188-4202). The development was achieved by expressing the F508delCFTR mutation along with a horseradish peroxidase (HRP) in the fourth exofacial loop, and then measuring the HRP activity using luminescence readout from these cells, CFBE410-F508delCFTR-HRP, that were incubated overnight with the test corrector compounds, either without or with the co-corrector. For this primary assay, the CFBE410-F508delCFTR-HRP cells were plated in 384-well plates (Greiner Bio-one; Cat 781080) at 4,000 cells/well along with 0.5 μg/mL doxycycline to induce the F508delCFTR-HRP expression and further incubated at 37° C., 5% CO2 for 68-72 hours. The test compounds were then added either without or with a co-corrector at the required concentrations and further incubated for 18-24 hours at 33° C. The highest concentration tested was 20 μM or 30 μM (GI-1 to GIII-36) with an 8-point concentration response curve using a 3-fold dilution in both the test compound without or with the co-corrector. Three replicate plates were run to determine one EC50. All plates contained negative controls (dimethyl sulfoxide, DMSO) and positive control (2 μM or 3 μM (GI-1 to GIII-36) of 3-[(2R,4R)-4-({[1-(2,2-difluoro-1,3-benzodioxol-5-yl)cyclopropyl]carbonyl}amino)-7-methoxy-3,4-dihydro-2H-chromen-2-yl]benzoic acid) as well as on-plate concentration response of the positive control. Post incubation, the plates were washed 5× times with Dulbecco's phosphate buffered saline (DPBS), followed by the addition of the HRP substrate, luminol (50 4), and measuring the HRP activity using luminescence readout on EnVision® Multilabel Plate Reader (Perkin Elmer; product number 2104-0010). The raw counts from the experiment were analyzed using Accelrys® Assay Explorer v3.3.
Z′ greater than 0.5 was used as passing quality control criteria for the plates.
The Z′ is defined as: 1−[3*SDPositve Control+3*SDNegative Control/Absolute(MeanPositive Control−MeanNegative Control)] wherein “SD” is standard deviation.
The % activity measured at each of the 8 test concentrations of the test compound added either without or with a co-corrector (2 μM or 3 μM (GI-1 to GIII-36) of 3-[(2R,4R)-4-({[1-(2,2-difluoro-1,3-benzodioxol-5-yl)cyclopropyl]carbonyl}amino)-7-methoxy-3,4-dihydro-2H-chromen-2-yl]benzoic acid) was normalized to the on-plate positive control using the following formulae: % activity (Test compound without co-corrector)=[(test compound without co-corrector response DMSO response)/(positive control response DMSO response)]*100 % activity (Test compound with co-corrector)=[(test compound with co-corrector response DMSO response)/(positive control response DMSO response)]*100
The maximum % activity achieved for the test compound either without or with a co-corrector at any tested concentration is presented in Table 6 along with the respective EC50's calculated using the following general sigmoidal curve with variable Hill slope equation (described as Model 42 in the Accelrys® Assay Explorer v3.3 software): y=(a−d)/(1+(x/c)b)+d
General sigmoidal curve with concentration, response, top, bottom, EC50 and Hill slope. This model describes a sigmoidal curve with an adjustable baseline, a. The equation can be used to fit curves where response is either increasing or decreasing with respect to the independent variable, “x”.
“x” is a concentration of drug under test.
“a” is the maximum response, and “d” is the minimum response
“c” is the inflection point (EGO for the curve. That is, “y” is halfway between the lower and upper asymptotes when x=c.
“b” is the slope-factor or Hill coefficient. […]

The mark [1] stands for this setting: test compound with co-corrector.
[2] abbreviates: test compound with co-corrector, read-out: EC50 (with co-corrector).
The mark [3] stands for this setting: test compound without co-corrector.
The mark [4] stands for this setting: test compound without co-corrector, read-out: EC50 (without co-corrector).
Setting [5] is: test compound alone, without co-corrector, read-out: EC50 (without co-corrector).
[6] abbreviates: with co-corrector, read-out: EC50 (with co-corrector).

T1 sequence (P13569 with tags, fused parts or gaps DEL508-508): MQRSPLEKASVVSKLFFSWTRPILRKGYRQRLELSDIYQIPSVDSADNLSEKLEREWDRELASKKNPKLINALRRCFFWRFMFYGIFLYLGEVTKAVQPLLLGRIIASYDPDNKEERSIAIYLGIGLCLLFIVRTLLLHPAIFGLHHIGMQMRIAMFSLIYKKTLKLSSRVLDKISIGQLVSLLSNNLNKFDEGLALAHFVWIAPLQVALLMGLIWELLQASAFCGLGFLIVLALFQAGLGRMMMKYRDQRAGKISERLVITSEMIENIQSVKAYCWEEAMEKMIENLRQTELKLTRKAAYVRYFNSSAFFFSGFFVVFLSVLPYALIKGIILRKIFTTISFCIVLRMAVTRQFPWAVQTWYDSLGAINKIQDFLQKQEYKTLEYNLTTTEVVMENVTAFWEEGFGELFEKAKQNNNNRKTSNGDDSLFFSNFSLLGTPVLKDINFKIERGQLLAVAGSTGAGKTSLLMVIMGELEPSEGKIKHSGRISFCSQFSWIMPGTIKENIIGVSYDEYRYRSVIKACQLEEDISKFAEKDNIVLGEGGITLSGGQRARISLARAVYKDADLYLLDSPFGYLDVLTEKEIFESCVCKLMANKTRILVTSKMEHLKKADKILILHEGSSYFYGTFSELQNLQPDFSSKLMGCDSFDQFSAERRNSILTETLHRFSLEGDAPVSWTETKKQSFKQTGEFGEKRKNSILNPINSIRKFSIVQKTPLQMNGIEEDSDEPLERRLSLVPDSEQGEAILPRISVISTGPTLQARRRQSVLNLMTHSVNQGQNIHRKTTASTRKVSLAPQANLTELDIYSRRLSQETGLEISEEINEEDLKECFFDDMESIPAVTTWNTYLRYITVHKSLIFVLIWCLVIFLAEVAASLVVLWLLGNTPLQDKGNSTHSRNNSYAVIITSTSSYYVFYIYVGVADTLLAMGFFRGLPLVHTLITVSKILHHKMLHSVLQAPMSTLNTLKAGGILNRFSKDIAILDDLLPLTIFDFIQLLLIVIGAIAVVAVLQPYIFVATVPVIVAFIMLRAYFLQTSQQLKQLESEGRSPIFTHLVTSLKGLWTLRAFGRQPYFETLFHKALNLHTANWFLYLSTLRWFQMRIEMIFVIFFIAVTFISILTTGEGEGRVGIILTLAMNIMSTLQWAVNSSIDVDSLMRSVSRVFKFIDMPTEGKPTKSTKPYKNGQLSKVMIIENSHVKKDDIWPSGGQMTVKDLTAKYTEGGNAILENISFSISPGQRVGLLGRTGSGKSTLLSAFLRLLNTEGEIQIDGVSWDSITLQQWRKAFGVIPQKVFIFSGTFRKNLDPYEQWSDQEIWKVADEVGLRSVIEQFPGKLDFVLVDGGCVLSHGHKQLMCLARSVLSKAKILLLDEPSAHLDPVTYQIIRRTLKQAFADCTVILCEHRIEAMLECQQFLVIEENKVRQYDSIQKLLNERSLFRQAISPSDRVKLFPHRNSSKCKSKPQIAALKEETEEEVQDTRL

In general, pEC50 refers to the EC50 on a negative log10 scale, so that one unit is a factor of ten. Take `CCc1cnc(N(C)C)c(C2(C(=O)NS(=O)(=O)c3cccc4[nH]ccc34)CC2)c1` [GII-49, 1-[2-(dimethylamino)-5-ethylpyridin-3-yl]-N-(1H-indole-4-sulfonyl)cyclopropane-1-carboxamide]: the “Maximum % activity (with co-corrector)” value under setting [1] is on record as “+++ (≥350)”. The pEC50 is 5.00 to 5.52 under setting [2] and 5.00 to 5.52 under setting [4]. Also, the Emax under setting [3] was more than 150%.

In the case of `COc1ccc(C2(OC)CCC2)cc1C1(C(=O)NS(=O)(=O)c2cccc3ncccc23)CC1` [Example I-88, 1-[2-methoxy-5-(1-methoxycyclobutyl)phenyl]-N-(quinoline-5-sulfonyl)cyclopropane-1-carboxamide], the pEC50 is, setting by setting: under setting [5], 5.00 to 5.52; under setting [6], more than 5.52. For the same compound, the “Maximum % activity (with co-corrector)” value (with co-corrector) is on record as “+++ (≥350)”. Also, the Emax (without co-corrector) is more than 150%.

For `COc1cnc(C2CC2)c(C2(C(=O)NS(=O)(=O)c3cccc4ncccc34)CC2)c1` [GII-15, 1-(2-cyclopropyl-5-methoxypyridin-3-yl)-N-(quinoline-5-sulfonyl)cyclopropane-1-carboxamide], the “Maximum % activity (with co-corrector)” value under setting [1] is on record as “+++ (≥350)”. The pEC50 under setting [2] is 5.00 to 5.52 and the pEC50 under setting [4] was 5.00 to 5.52. Moreover, the Emax under setting [3] was more than 150%.

Take `COc1ccc(C2CCC2)cc1C1(C(=O)NS(=O)(=O)c2cccc3ccc(C)nc23)CC1` [Example I-62, 1-(5-cyclobutyl-2-methoxyphenyl)-N-(2-methylquinoline-8-sulfonyl)cyclopropane-1-carboxamide]: the pEC50 is more than 5.52 under setting [5] and more than 5.52 under setting [6]. The “Maximum % activity (with co-corrector)” value (with co-corrector) is “+++ (≥350)”. Besides, the Emax (without co-corrector) was more than 150%.

As for `O=C(NS(=O)(=O)Cc1ccccc1)C1(c2ccc(Cl)c(Cl)c2)CC1` [Example III-115, 1-(3,4-dichlorophenyl)-N-(phenylmethanesulfonyl)cyclopropane-1-carboxamide], the pEC50 is less than 5.00 under setting [5] and less than 5.00 under setting [6]. Also, the “Maximum % activity (with co-corrector)” value (with co-corrector) is “+ (<150)”. Where the note is “without co-corrector”, the Emax is less than 50%.

Turning to `CCOc1ccc(C(C)(C)OC)cc1C1(C(=O)NS(=O)(=O)c2cccc3ncccc23)CC1` [II-97], the pEC50 reads like this: under setting [5], more than 5.52; under setting [6], more than 5.52. Also, the “Maximum % activity (with co-corrector)” value (with co-corrector) is recorded as “+++ (≥350)”. The Emax (without co-corrector) is more than 150%.

On to `COc1ncc(C(F)(F)F)cc1C1(C(=O)NS(=O)(=O)c2cccc3ncccc23)CC1` [II-7], for which the pEC50 under setting [5] was 5.00 to 5.52 and the pEC50 under setting [6] was more than 5.52. Moreover, where the note is “with co-corrector”, the “Maximum % activity (with co-corrector)” value is on record as “+++ (≥350)”. Also, the Emax (without co-corrector) was more than 150%.

Turning to `COc1ccc(Br)cc1C1(C(=O)NS(=O)(=O)c2cccc3ncccc23)CC1` [Example I-18, 1-(5-bromo-2-methoxyphenyl)-N-(quinoline-5-sulfonyl)cyclopropane-1-carboxamide], the negative logarithm of the EC50 (pEC50) runs as follows: under setting [5], more than 5.52; under setting [6], more than 5.52. Further, where the note is “with co-corrector”, the “Maximum % activity (with co-corrector)” value is on record as “+++ (≥350)”. For the same compound, under “without co-corrector”, the Emax is more than 150%.

Take `CN1CCN(c2ncc(C3CCC3)cc2C2(C(=O)NS(=O)(=O)c3cccc4ncccc34)CC2)CC1` [GIII-31]: under setting [1], the “Maximum % activity (with co-corrector)” value was “+ (<150)”. The pEC50 by setting is: under setting [2], less than 5.00; under setting [4], less than 5.00. The Emax under setting [3] is less than 50%.

As for `Cc1ccc2c(S(=O)(=O)NC(=O)C3(c4cc(Cl)cnc4N4CCCC4)CC3)cccc2n1` [Example GI-36, 1-[5-chloro-2-(pyrrolidin-1-yl)pyridin-3-yl]-N-(2-methylquinoline-5-sulfonyl)cyclopropane-1-carboxamide], the “Maximum % activity (with co-corrector)” value under setting [1] is listed as “+++ (≥350)”. The pEC50 is more than 5.52 under setting [2] and 5.00 to 5.52 under setting [4]. Under setting [3], the Emax was more than 150%.

With `CCc1cnc(OCC2CC2)c(C2(C(=O)NS(=O)(=O)c3cccc4[nH]ccc34)CC2)c1` [Example GI-108, 1-[2-(cyclopropylmethoxy)-5-ethylpyridin-3-yl]-N-(1H-indole-4-sulfonyl)cyclopropane-1-carboxamide], the “Maximum % activity (with co-corrector)” value under setting [1] was “+++ (≥350)”. Moreover, the negative-log EC50 (pEC50) reads like this: under setting [2], more than 5.52; under setting [4], more than 5.52. Moreover, the Emax under setting [3] is more than 150%.

As to `O=C(NS(=O)(=O)c1ccccc1)C1(c2cccc(Br)c2)CC1` [Example III-71, N-(benzenesulfonyl)-1-(3-bromophenyl)cyclopropane-1-carboxamide], the pEC50 was 5.00 to 5.52 under setting [5] and 5.00 to 5.52 under setting [6]. Also, the “Maximum % activity (with co-corrector)” value (with co-corrector) was “+++ (≥350)”. In addition, for the setting “without co-corrector”, the Emax is 50 to 150%.

Regarding `CC(C)COc1ncc(N(C)C)cc1C1(C(=O)NS(=O)(=O)c2cccc3ncccc23)CC1` [II-112], the pEC50 runs as follows: under setting [5], more than 5.52; under setting [6], more than 5.52. In addition, under “with co-corrector”, the “Maximum % activity (with co-corrector)” value is given as “+++ (≥350)”. The Emax (without co-corrector) is more than 150%.

With `CCOc1ccc(C)cc1C1(C(=O)NS(=O)(=O)c2cccc3[nH]c(C)cc23)CC1` [Example I-91, 1-(2-ethoxy-5-methylphenyl)-N-(2-methyl-1H-indole-4-sulfonyl)cyclopropane-1-carboxamide], the pEC50 was more than 5.52 under setting [5] and more than 5.52 under setting [6]. Further, the “Maximum % activity (with co-corrector)” value (with co-corrector) was “+++ (≥350)”. The Emax (without co-corrector) was more than 150%.

Turning to `Cc1cnc(OCC(C)C)c(C2(C(=O)NS(=O)(=O)c3cccc4[nH]ncc34)CC2)c1` [Example III-130, N-(1H-indazole-4-sulfonyl)-1-[5-methyl-2-(2-methylpropoxy)pyridin-3-yl]cyclopropane-1-carboxamide], the pEC50 under setting [5] is 5.00 to 5.52 and the pEC50 under setting [6] was more than 5.52. Under “with co-corrector”, the “Maximum % activity (with co-corrector)” value is reported as “+++ (≥350)”. For the same compound, the Emax (without co-corrector) was more than 150%.

Consider `O=C(NS(=O)(=O)c1ccccc1)C1(c2ccccc2F)CC1` [Example III-30, N-(benzenesulfonyl)-1-(2-fluorophenyl)cyclopropane-1-carboxamide], for which the pEC50 under setting [5] is less than 5.00 and the pEC50 under setting [6] was 5.00 to 5.52. In addition, the “Maximum % activity (with co-corrector)” value (with co-corrector) is “++ (≥150 and <350)”. Also, the Emax (without co-corrector) is less than 50%.

Take `COc1cccc(C)c1C1(C(=O)NS(=O)(=O)c2cccc3ccc(C)nc23)CC1` [II-45]: the pEC50 runs as follows: under setting [5], 5.00 to 5.52; under setting [6], more than 5.52. Further, the “Maximum % activity (with co-corrector)” value (with co-corrector) is given as “+++ (≥350)”. In addition, the Emax (without co-corrector) was more than 150%.

As to `COc1cc(C)c(C2(C(=O)NS(=O)(=O)c3cccc4ncccc34)CC2)cn1` [GII-23, 1-(6-methoxy-4-methylpyridin-3-yl)-N-(quinoline-5-sulfonyl)cyclopropane-1-carboxamide], under setting [1], the “EC50 (with co-corrector)” value is “++^a”; the “Maximum % activity (with co-corrector)” value was “++ (≥150 and <350)”. Also, under setting [3], the “EC50 (without co-corrector)” value is reported as “++^a” and the Emax was 50 to 150%.

In the case of `COc1cccc(C(C)C)c1C1(C(=O)NS(=O)(=O)c2cccc3ncccc23)CC1` [Example I-50, 1-[2-methoxy-6-(propan-2-yl)phenyl]-N-(quinoline-5-sulfonyl)cyclopropane-1-carboxamide], the pEC50 is, setting by setting: under setting [5], more than 5.52; under setting [6], more than 5.52. In addition, where the note is “with co-corrector”, the “Maximum % activity (with co-corrector)” value is given as “+++ (≥350)”. Also, the Emax (without co-corrector) was more than 150%.
